# In US20190203240A1, “METHODS FOR THE PRODUCTION OF RHAMNOSYLATED FLAVONOIDS” (Universitaet Hamburg, priority 2016, published 2019):
# Columns and labels:
# Type in all cases: cell-based
# HaCaT cells = assay: Glucose uptake (2-NBDG) in HaCaT keratinocytes; settings: +2NBDG 50 μM, 24 h
# Protocol: HaCaT cells (5×10^4) were seeded in 96-well black plates and incubated for 24 h. Then, medium was removed and the cells cultivated in OptiMEM, labeled with 50 μM 2-NBDG (2-[N-(7-nitrobenz-2-oxa-1,3-diazol-4-yl) amino]-2-deoxy-D-glucose and treated with the test substances or the positive control, Rosiglitazone, for 24 h. Medium was removed and the wells were carefully washed with PBS and incubated in PBS (100 μl/well). Finally the fluorescence was measured using the Incucyte FLR software, the data were analyzed by the total green object integrated intensity (GCU×μm2×Well) of the imaging system IncuCyte HD (Essen BioScience). The fluorescence of Rosiglitazone is taken as 100% of glucose uptake, and the glucose uptake was calculated as (% Glucose uptake)=100(T−B)/(R−B), where T (treated) is the fluorescence of test substance-treated cells, B (Basal) is the fluorescence of 2-NBDG cells and […] is the fluorescence of cells treated with Rosiglitazone.
# NF-κB = NF-κB activity in NIH3T3-KBF-Luc cells stimulated with TNFα (luciferase); settings: +30 ng/ml TNFα
# Protocol: NIH3T3-KBF-Luc cells were stably transfected with the KBF-Luc plasmid (Sancho (2003) Mol Pharmacol 63:429-438), which contains three copies of NF-κB binding site (from major histocompatibility complex promoter), fused to a minimal simian virus 40 promoter driving the luciferase gene. Cells (1×10^4 for NIH3T3-KBF-Luc) were seeded the day before the assay on 96-well plate. Then the cells were treated with the test substances for 15 min and then stimulated with 30 ng/ml of TNFα. After 6 h, the cells were washed twice with PBS and lysed in 50 μl lysis buffer containing 25 mM Tris-phosphate (pH 7.8), 8 mM MgCl2, 1 mM DTT, 1% Triton X-100, and 7% glycerol during 15 min at RT in a horizontal shaker. Luciferase activity was measured using a GloMax 96 microplate luminometer (Promega) following the instructions of the luciferase assay kit (Promega, Madison, Wis., USA). […] The experiments for each concentration of the test items were done in triplicate wells.
# STAT3 = STAT3 activity in HeLa-STAT3-luc cells stimulated with IFN-γ (luciferase); settings: +IFNγ 25 U/ml
# Protocol: HeLa-STAT3-luc cells were stably transfected with the plasmid 4×M67 pTATA TK-Luc. Cells (20×10^3 cells/ml) were seeded 96-well plate the day before the assay. Then the cells were treated with the test substances for […] and then stimulated with IFN-γ 25 IU/ml. After 6 h, the cells were washed twice with PBS and lysed in […] lysis buffer containing 25 mM Tris-phosphate (pH 7.8), 8 mM MgCl2, 1 mM DTT, 1% Triton X-100, and 7% glycerol during […] at RT in a horizontal shaker. Luciferase activity was measured using GloMax 96 microplate luminometer (Promega) following the instructions of the luciferase assay kit (Promega, Madison, Wis., USA). […] The experiments for each concentration of the test items were done in triplicate wells.
Compound,% Activation (NF-κB; TNFα = 100%) (NF-κB; 10 μM) [%],RLU 1 (NF-κB; 10 μM) [RLU],RLU 2 (NF-κB; 10 μM) [RLU],RLU 3 (NF-κB; 10 μM) [RLU],RLU MEAN (NF-κB; 10 μM) [RLU],RLU specific (NF-κB; 10 μM) [RLU],% Activation (NF-κB; TNFα = 100%) (NF-κB; 25 μM) [%],RLU 1 (NF-κB; 25 μM) [RLU],RLU 2 (NF-κB; 25 μM) [RLU],RLU 3 (NF-κB; 25 μM) [RLU],RLU MEAN (NF-κB; 25 μM) [RLU],RLU specific (NF-κB; 25 μM) [RLU],% Activation (STAT3; IFNγ = 100%) (STAT3; 25 μM) [%],RLU 1 (STAT3; 25 μM) [RLU],RLU 2 (STAT3; 25 μM) [RLU],RLU 3 (STAT3; 25 μM) [RLU],RLU MEAN (STAT3; 25 μM) [RLU],RLU specific (STAT3; 25 μM) [RLU],RLU 1 (STAT3; 50 μM) [RLU],RLU 2 (STAT3; 50 μM) [RLU],other results
"COc1ccc(-c2coc3cc(O)cc(O[C@@H]4O[C@@H](C)[C@H](O)[C@@H](O)[C@H]4O)c3c2=O)cc1 [BR2, Biochanin A 5-O-α-L-rhamnoside]",138.3,205410,202640,202940,203663,180300,163.2,237390,235850,235350,236197,212833,109.76,11157,10163,10660,10660,8825,7983,9023,% Glucose uptake (Rosiglitazone = 100%) (HaCaT cells; 25 μM): 77.5%; Mean (fluorescence) (HaCaT cells; 25 μM): 1027608; Measure 1 (fluorescence) (HaCaT cells; 25 μM): 998132; Measure 2 (fluorescence) (HaCaT cells; 25 μM): 1149619; Measure 3 (fluorescence) (HaCaT cells; 25 μM): 935073; RFU specific (HaCaT cells; 25 μM): 994522 RFU; % Glucose uptake (Rosiglitazone = 100%) (HaCaT cells; 50 μM): 129.0%; Mean (fluorescence) (HaCaT cells; 50 μM): 1688513; Measure 1 (fluorescence) (HaCaT cells; 50 μM): 1657600; Measure 2 (fluorescence) (HaCaT cells; 50 μM): 1788604; Measure 3 (fluorescence) (HaCaT cells; 50 μM): 1619334; RFU specific (HaCaT cells; 50 μM): 1655427 RFU; % Activation (STAT3; IFNγ = 100%) (STAT3; 50 μM): 93.74%; RLU 3 (STAT3; 50 μM): 11110 RLU; RLU MEAN (STAT3; 50 μM): 9372 RLU; RLU specific (STAT3; 50 μM): 7537 RLU
COc1cc(C2Oc3cc([C@H]4Oc5cc(O)cc(O)c5C(=O)[C@@H]4O)ccc3OC2CO)ccc1O (stereo partly drawn) [Silibinin],–,–,–,–,–,–,–,–,–,–,–,–,121.32,12389,11170,11210,11590,9755,12157,11885,% Activation (STAT3; IFNγ = 100%) (STAT3; 50 μM): 120.55%; RLU 3 (STAT3; 50 μM): 10540 RLU; RLU MEAN (STAT3; 50 μM): 11527 RLU; RLU specific (STAT3; 50 μM): 9692 RLU
"CC1O[C@@H](Oc2cc(O[C@@H]3OC(C)[C@H](O)C(O)C3O)c3c(=O)cc(-c4ccccc4)oc3c2)C(O)C(O)[C@H]1O (stereo partly drawn) [CR1, Chrysin-di-5,7-O-α-L-rhamnoside]",109.9,157870,169000,173010,166627,143263,120.8,175140,183630,183960,180910,157547,–,–,–,–,–,–,–,–,% Glucose uptake (Rosiglitazone = 100%) (HaCaT cells; 25 μM): 48.3%; Mean (fluorescence) (HaCaT cells; 25 μM): 426161; Measure 1 (fluorescence) (HaCaT cells; 25 μM): 291406; Measure 2 (fluorescence) (HaCaT cells; 25 μM): 358114; Measure 3 (fluorescence) (HaCaT cells; 25 μM): 628963; RFU specific (HaCaT cells; 25 μM): 419847 RFU; % Glucose uptake (Rosiglitazone = 100%) (HaCaT cells; 50 μM): 52.6%; Mean (fluorescence) (HaCaT cells; 50 μM): 463245; Measure 1 (fluorescence) (HaCaT cells; 50 μM): 619992; Measure 2 (fluorescence) (HaCaT cells; 50 μM): 595330; Measure 3 (fluorescence) (HaCaT cells; 50 μM): 174412; RFU specific (HaCaT cells; 50 μM): 456931 RFU
O=c1cc(-c2ccccc2)oc2cc(O)cc(O)c12 [Chrysin],313.0,301630,274240,303950,293273,256010,293.5,273410,272580,285980,277323,240060,164.78,28031,22367,17504,22634,20627,27912,3531,% Activation (STAT3; IFNγ = 100%) (STAT3; 50 μM): 111.11%; RLU 3 (STAT3; 50 μM): 16304 RLU; RLU MEAN (STAT3; 50 μM): 15916 RLU; RLU specific (STAT3; 50 μM): 13908 RLU
COc1ccc(-c2cc(=O)c3c(O)cc(O)cc3o2)cc1O [Diosmetin],294.7,398660,411390,412940,407663,384300,327.9,448530,452660,451610,450933,427570,111.00,16337,14303,17066,15902,13895,9189,7751,"RLU 3 (STAT3; 50 μM): 7857 RLU; RLU MEAN (STAT3; 50 μM): 8266 RLU; RLU specific (STAT3; 50 μM): 6258 RLU; activity at 50 µM (STAT3; 6 h, 50 μM, read-out: % Activation (STAT3; IFNγ = 100%)): 50%"
"CC1O[C@@H](Oc2cc(O)cc3oc(-c4ccccc4)cc(=O)c23)C(O)C(O)[C@H]1O (stereo partly drawn) [CR2, Chrysin-5-O-α-L-rhamnoside]",101.7,156600,160140,151070,155937,132573,–,170390,179220,163490,171033,147670,–,–,–,–,–,–,–,–,"% Glucose uptake (Rosiglitazone = 100%) (HaCaT cells; 25 μM): 47.2%; Mean (fluorescence) (HaCaT cells; 25 μM): 416681; Measure 1 (fluorescence) (HaCaT cells; 25 μM): 427937; Measure 2 (fluorescence) (HaCaT cells; 25 μM): 431593; Measure 3 (fluorescence) (HaCaT cells; 25 μM): 390512; RFU specific (HaCaT cells; 25 μM): 410367 RFU; % Glucose uptake (Rosiglitazone = 100%) (HaCaT cells; 50 μM): 106.5%; Mean (fluorescence) (HaCaT cells; 50 μM): 931673; Measure 1 (fluorescence) (HaCaT cells; 50 μM): 771478; Measure 2 (fluorescence) (HaCaT cells; 50 μM): 1100390; Measure 3 (fluorescence) (HaCaT cells; 50 μM): 923151; RFU specific (HaCaT cells; 50 μM): 925359 RFU; activity at 25 µM (NF-κB; 6 h, 25 μM, read-out: % Activation (NF-κB; TNFα = 100%)): 113%"
